Publication PMC6215995 (International Journal for Parasitology: Drugs and Drug …, 2018)
Like-named read-outs stand apart in the source and are kept apart here. Marks after values point to notes of the source that are not given here.

What was measured:
P. falciparum 3D7 = assay: Antiplasmodial SYBR green assay, CQ-sensitive strain; type: cell-based; conditions: for Selective index 3D7: ratio between MDL50 and IC50, 3D7
Protocol: Briefly, the plates were centrifuged at 700g for 5 min at room temperature to remove the medium, washed with PBS and incubated for 30 min with lysis buffer solution [2.4228 g TRIS, ultra-pure for 20 mM solution, pH 7.5; 1.8612 g of EDTA 5 mM ultrapure for 5 mM solution; 80 μg Saponin (0.008% w/v); 800 μL of Triton X-100 (0.08% v/v); water Type I] and SYBR green I DNA stain (1:20000). The fluorescence of uninfected erythrocytes was considered as background.
(§1) The half-maximal drug inhibitory concentration (IC50) was estimated by curve fitting using the software from the OriginLab Corporation (USA) and compared to the parasite growth in the drug-free medium.

P. falciparum K1 = assay: Antiplasmodial SYBR green assay, multidrug-resistant strain; type: cell-based; conditions: for Selective index K1: ratio between MDL50 and IC50, K1
Protocol: The freshly sorbitol synchronized ring stages were immediately incubated with the test compounds at various concentrations (from 10 to 0.152 μM or 1.0–0.0152 μM) that were previously solubilized in 0.05% dimethyl sulfoxide (DMSO) (v/v) ([Lambros and Vanderberg, 1979]). […] The antiplasmodial activity of the compounds was measured through SYBR green assay ([Smilkstein et al., 2004]). Briefly, the plates were centrifuged at 700g for 5 min at room temperature to remove the medium, washed with PBS and incubated for 30 min with lysis buffer solution [2.4228 g TRIS, ultra-pure for 20 mM solution, pH 7.5; 1.8612 g of EDTA 5 mM ultrapure for 5 mM solution; 80 μg Saponin (0.008% w/v); 800 μL of Triton X-100 (0.08% v/v); water Type I] and SYBR green I DNA stain (1:20000). The fluorescence of uninfected erythrocytes was considered as background. Fluorescence was measured on fluorimeter (SpectraMax340PC384) at 485/535 nm.
as §1

BGM-VN = conditions: MTT, 24 h
Protocol: The compounds (20 μL), at various concentrations (400–1.0 μM), were placed in the 96-well plates, incubated with the cultured cells for 24 h under a 5% CO2 atmosphere at 37 °C and then the 3-(4,5-dimethylthiazol-2-yl)-2,5-diphenyltetrazolium bromide (MTT) solution (5 mg/mL; 20 μL/well for 3 h) was used to evaluate the mitochondrial viability. The supernatants were carefully removed and 100 μL DMSO were added to each well and mixed to solubilize the formazan crystals. The optical density was determined at 570 and 630 nm (background) (SpectraMax340PC384). The cell viability was expressed as the percentage of the control absorbance in the untreated cells after subtracting the appropriate background. Each test was performed in triplicate in at least two different experiments.

β-hematin formation = assay: Inhibition of β-hematin formation assay; type: biochemical; conditions: MOG lipid catalyst, sodium acetate pH 4.8, 37 °C, 2 h; read-out: β-hematin inhibition IC50 (mM)± SD
Protocol: The assay was performed using a lipid as a catalyst to promote crystallization ([Pisciotta et al., 2007]; [Fitch et al., 1999]). Briefly, drug stock solutions were prepared in DMSO and were used at a final concentration of up to 30 mM. […] After incubation for 30 min at room temperature, the amount of solubilized monomeric heme was determined by measuring the absorbance at 405 nm. […] The absorbance was read at 405 nm to determine the total amount of heme present in each well. The inhibition of heme crystallization was determined as a function of the amount of monomeric heme that was not crystallized divided by the total amount of heme present in the assay mixture. The results are expressed as IC50 values based on the percentage inhibition of β-hematin formation by the compounds […] and DAQ.

P. berghei NK65 = assay: Suppressive test in P. berghei infected mice; type: in vivo; conditions: for Reduction of parasitemia until day 11 after infection / Mice survival in comparison with the non-treated control / Parasitemia on day 5 / Parasitemia %reduction on day 5 / Parasitemia on day 7 / Parasitemia %reduction on day 7 / Parasitemia on day 9 / Parasitemia %reduction on day 9 / Parasitemia on day 11 / Parasitemia %reduction on day 11 / Parasitemia on day 13 / Parasitemia %reduction on day 13 / Parasitemia on day 15 / Parasitemia %reduction on day 15 / Survival: three consecutive days; for Mice survival in comparison with the non-treated control: Mann-Whitney test p < 0.05; for Parasitemia %reduction on day 5: day 5, vs non treated; for Parasitemia %reduction on day 7: day 7, vs non treated; for Parasitemia %reduction on day 9: day 9, vs non treated; for Parasitemia %reduction on day 11: day 11, vs non treated; for Parasitemia %reduction on day 13: day 13, vs non treated; for Parasitemia %reduction on day 15: day 15, vs non treated
Protocol: The P. berghei NK65 strain was obtained as a donation from New York University and maintained through weekly blood passages. For the experiments, groups of up to 30 mice were inoculated i.p. with 1 × 10^5 infected erythrocytes, kept together for about 24 h, then randomly distributed into groups of five per cage. […] On days 5–15 after the parasite inoculation, blood was taken from the tail of each mouse and used to prepare thin smears that were methanol-fixed, Giemsa-stained, and examined microscopically (1000×) to determine parasitemia. […] The experiments were performed twice.

[1] = Plasmodium falciparum, 3D7 CQ-sensitive strain, read-out: IC50 (nM ± SD) P. falciparum 3D7
[2] = Plasmodium falciparum, K1 multidrug-resistant strain, read-out: IC50 (nM ± SD) P. falciparum K1
[3] = oral 50 mg/kg, followed until day 30
[4] = 20 mg/kg, followed until day 30
[5] = 3D7 CQ-sensitive strain, read-out: IC50 (nM ± SD) P. falciparum 3D7
[6] = K1 multidrug-resistant strain, read-out: IC50 (nM ± SD) P. falciparum K1

Compound | IC50 (P. falciparum 3D7; [1]) [nM] | Selective index 3D7 (P. falciparum 3D7) | IC50 (P. falciparum K1; [2]) [nM] | Selective index K1 (P. falciparum K1) | MLD50 BGM-VN (BGM-VN) [µM] | IC50 (β-hematin formation) [mM] | Reduction of parasitemia until day 11 after infection (P. berghei NK65; oral 50 mg/kg) [%] | Mice survival in comparison with the non-treated control (P. berghei NK65; oral 50 mg/kg) | Parasitemia on day 5 (P. berghei NK65; oral 50 mg/kg) | Parasitemia on day 7 (P. berghei NK65; oral 50 mg/kg) | Parasitemia %reduction on day 7 (P. berghei NK65; oral 50 mg/kg) [%] | Parasitemia on day 9 (P. berghei NK65; oral 50 mg/kg) | Parasitemia %reduction on day 9 (P. berghei NK65; oral 50 mg/kg) [%] | Parasitemia on day 11 (P. berghei NK65; oral 50 mg/kg) | Parasitemia %reduction on day 11 (P. berghei NK65; oral 50 mg/kg) [%] | Parasitemia on day 13 (P. berghei NK65; oral 50 mg/kg) | Parasitemia %reduction on day 13 (P. berghei NK65; oral 50 mg/kg) [%] | Parasitemia on day 15 (P. berghei NK65; oral 50 mg/kg) | Parasitemia %reduction on day 15 (P. berghei NK65; oral 50 mg/kg) [%] | Survival (P. berghei NK65; [3]) | further results
NCCNc1ccnc2cc(Cl)ccc12 [CEQ, N-(2-aminoethyl)-7-chloroquinolin-4-amine] | 273 ± 12 | 655 | 218 ± 44 | 821 | 179 ± 40 | 1.2 ± 0.76 | 100 | significantly higher | 0.00 | 0.00 | 100 | 0.00 | 100 | 0.00 | 100 | 0.57 | 94 | 4 | 80 | 26 ± 6 ^b | Parasitemia %reduction on day 5 (P. berghei NK65; oral 50 mg/kg): 100%
O=C(O)CNc1ccnc2cc(Cl)ccc12 [GIQ, Acid 2-(7-chloroquinolin-4-ylamino) acetic] | > 10000 | Inactive | > 10000 | Inactive | >1000 | 7.6 ± 0.2 |  |  |  |  |  |  |  |  |  |  |  |  |  |  | Activity against P. falciparum in words (P. falciparum 3D7; sensitive and resistant parasites, highest dose 10 μM): inactive in all doses tested
CCN(CC)CCCC(C)Nc1ccnc2cc(Cl)ccc12 (centres unmarked) [CQ, Chloroquine, reference compound] |  |  |  |  |  | 0.76 ± 0.46 |  |  |  |  |  |  |  |  |  |  |  |  |  |  | IC50 (P. falciparum 3D7; Plasmodium falciparum, 3D7, read-out: IC50 (nM ± SD) P. falciparum 3D7): 36 ± 12 nM; IC50 (P. falciparum K1; Plasmodium falciparum, K1, read-out: IC50 (nM ± SD) P. falciparum K1): 177 ± 20 nM; Survival in words (P. berghei NK65; [4]): survived until the last day of the experiment; Parasitemia on day 5 (P. berghei NK65; 20 mg/kg): 0.00; Parasitemia %reduction on day 5 (P. berghei NK65; 20 mg/kg): 100%; Parasitemia on day 7 (P. berghei NK65; 20 mg/kg): 0.00; Parasitemia %reduction on day 7 (P. berghei NK65; 20 mg/kg): 100%; Parasitemia on day 9 (P. berghei NK65; 20 mg/kg): 0.00; Parasitemia %reduction on day 9 (P. berghei NK65; 20 mg/kg): 100%; Parasitemia on day 11 (P. berghei NK65; 20 mg/kg): 0.00; Parasitemia %reduction on day 11 (P. berghei NK65; 20 mg/kg): 100%; Parasitemia on day 13 (P. berghei NK65; 20 mg/kg): 0.00; Parasitemia %reduction on day 13 (P. berghei NK65; 20 mg/kg): 100%; Parasitemia on day 15 (P. berghei NK65; 20 mg/kg): 0.00; Parasitemia %reduction on day 15 (P. berghei NK65; 20 mg/kg): 100%; Survival (P. berghei NK65; [4]): >30 ^b; Parasitemia in words (P. berghei NK65; 20 mg/kg, until the last day of evaluation (day 15)): no parasitemia
N-(4-(dimethylamino)but-2-enyl)-7-chloro-quinolin-4-amine [DAQ] |  |  |  |  | 1481 ± 39 | 0.15 ± 0.03 | 100 | significantly higher | 0.00 | 0.00 | 100 | 0.00 | 100 | 0.00 | 100 | 0.77 | 92 | 3.67 | 82 | 28 ± 1 ^b | IC50 (P. falciparum 3D7; [5]): 46 ± 4 nM; IC50 (P. falciparum K1; [6]): 50 ± 3 nM; Parasitemia %reduction on day 5 (P. berghei NK65; oral 50 mg/kg): 100%
N-(prop-2-enyl)-7-chloroquinoline-4-amine [PCQ] |  |  |  |  | 407 ± 185 | 3 ± 3 |  | not increased | 1.04 | 4.83 | 10 | 5.75 | 8 | 7.5 | 32 | 7.0 | 32 | 34.5 | 0 | 17 ± 8 | IC50 (P. falciparum 3D7; [5]): 377 ± 14 nM; IC50 (P. falciparum K1; [6]): 405 ± 32 nM; Parasitemia %reduction on day 5 (P. berghei NK65; oral 50 mg/kg, 50 mg/kg): 73%
